# Measurements reported in patent US11780834B2, “Solid forms of 3-((1R,3R)-1-(2,6-difluoro-4-((1-(3-fluoropropyl)azetidin-3-yl)amino)phenyl)-3-methyl-1,3,4,9-tetrahydro-2H-pyrido[3,4-b]indol-2-yl)-2,2-difluoropropan-1-ol and processes for preparing fused tricyclic compounds comprising a substituted phenyl or pyridinyl moiety, including methods …” (Hoffmann-La Roche Inc., priority 2018, dated 2023).
# How the values were obtained:
# [1] = Stress stability of solid forms at elevated temperature and humidity (XRPD, impurities); format: physicochemical
# Protocol: Preliminary stress stability analysis of Compound B Form B. The XRPD patterns of Compound A salts (fumarate and tartrate) exposed to 40° C./75% RH for one month under open conditions.
# XRPD of one-month stability sample.
# [2] = Approximate solubility of freebase Compound A in 16 solvents at RT; format: physicochemical
# Protocol: Polymorph Screening. The solubility of freebase Compound A was estimated in 16 solvents at RT. (Table 8). Polymorph screening experiments were performed using different solution crystallization or solid phase transition methods.
# [3] = Solubility at 37° C. (summary of solid forms); format: physicochemical; details: medium not stated
# [4] = Water sorption analysis / DVS (hygroscopicity); format: physicochemical; details: for Hygroscopicity (in words): water sorption / DVS at 25° C.
# Protocol: Water sorption analysis. About 5-6 mg of powder sample was placed in the sample pan of an automated water sorption analyzer (Q5000SA, TA instruments, New Castle, DE) at 25° C. and a nitrogen flow rate of 200 mL/min. […] This was followed by a progressive decrease in RH in decrements of 10% back to 0% RH, using the same protocol.
# [5] = Equilibrium solubility (17 hrs) of Form B and Form F in EtOH; format: physicochemical; details: concentration of freebase in filtrate
# Description: Phase transformation. Crystallization of Compound B from solvents such as ethyl acetate, ethanol, acetone or and aqueous mixture of these may result in the formation of one more of the following forms: anhydrous Form B, anhydrous Form F, monohydrate Form D, and acetone solvate Form A. The XRPD patterns of these four solid forms are shown in FIG. 21. It was therefore important to know the physical stability of these forms to determine the complete phase transformation landscape and control crystallization to obtain the desired Form B. Owing to the close proximity of melting points of Forms F and B (160-164° C. onset for Form F vs 166-175° C. for Form B), form conversion was slow in competitive slurry bridging experiments at RT and a mixture of both forms was obtained.
# Equilibrium Solubility Measurement of Anhydrous Form B and F. To further determine the thermodynamic stability between Form B and F, equilibrium solubility measurement experiments were conducted in EtOH at 25° C., 35° C. and 50° C., respectively. Detailed procedures are summarized as follows: solids of Form B and F were suspended in 0.4 mL of EtOH at targeted temperatures and magnetically stirred for 17 hrs (750 rpm). After centrifugation, the concentration and HPLC purity of freebase in the filtrate was tested. The crystal form of remaining solids was checked by XRPD.
# [6] = Equilibrium solubility (24 hrs) of Form B and Form D in aw 0.2/0.4 EtOH:H2O systems; format: physicochemical; details: RT, concentration of freebase in filtrate; for solubility at 24 hrs: organic solvent or mixture, thermodynamic from solid
# Protocol: Solubility Measurement of Form B and D. To further confirm the thermodynamic stability relationship between Form B and Form D under aw of 0.2 and 0.4 conditions at RT, equilibrium solubility under the conditions set forth in Table 35 was collected.
# Solids of anhydrous Form B and hydrous Form D were suspended in 0.5 mL of target solvent system (aw=0.2/0.4), respectively, and magnetically stirred for 24 hrs (750 rpm). The suspension was filtered and the concentration of freebase in the filtrate was tested.
# [7] = Compression analysis of Compound B Form B compacts; format: physicochemical; details: 250 mg compacts of neat compound
# [8] = Hydrate-anhydrate stability, slurry competition under various water activity at RT; format: physicochemical
# Protocol: Critical Water Activity Determination between Form B and D. To determine critical water activity between anhydrous Form B and hydrous Form D, slurry competition was performed in various water activity conditions at RT as listed in Table 34. A mixture of Form B and D with equal mass ratio was suspended in saturated EtOH-water (with various aw) solutions of Form B and then magnetically stirred at RT. After slurry for about 7˜36 days, remaining solids were isolated for XRPD characterization.
# [9] = tested on: xenograft models of ER-positive breast cancer; details: dosed according to a clinically relevant dosing scheme
compound,measurement,setting,value
C[C@@H]1Cc2c([nH]c3ccccc23)[C@@H](c2c(F)cc(NC3CN(CCCF)C3)cc2F)N1CC(F)(F)CO [Compound C],Impurities after stress stability,"[1]; 40° C./75% RH, one month",0.18%
same,Solid form (XRPD) after stress stability,"[1]; 40° C./75% RH, one month, open",did not change
"C[C@@H]1Cc2c([nH]c3ccccc23)[C@@H](c2c(F)cc(NC3CN(CCCF)C3)cc2F)N1CC(F)(F)CO [Compound A, 3-((1R,3R)-1-(2,6-difluoro-4-((1-(3-fluoropropyl)azetidin-3-yl)amino)phenyl)-3-methyl-1,3,4,9-tetrahydro-2H-pyrido[3,4-b]indol-2-yl)-2,2-difluoropropan-1-ol]",solubility,"[2]; ethanol, organic solvent or mixture, EtOH",> 60 mg/mL
same,solubility,"[2]; organic solvent or mixture, 1,4-Dioxane",> 60 mg/mL
same,solubility,"[2]; organic solvent or mixture, 2-propanol",> 60 mg/mL
same,solubility,"[2]; organic solvent or mixture, ACN",> 60 mg/mL
same,solubility,"[2]; organic solvent or mixture, Acetone",> 60 mg/mL
same,solubility,"[2]; organic solvent or mixture, CPME",> 44 mg/mL
same,solubility,"[2]; organic solvent or mixture, Cyclohexanes",< 1.9 mg/mL
same,solubility,"[2]; organic solvent or mixture, EtOAc",> 60 mg/mL
same,solubility,"[2]; organic solvent or mixture, IPAc",> 60 mg/mL
same,solubility,"[2]; organic solvent or mixture, Iso-butanol",> 40 mg/mL
same,solubility,"[2]; organic solvent or mixture, MIBK",> 60 mg/mL
same,solubility,"[2]; organic solvent or mixture, MTBE",> 60 mg/mL
same,solubility,"[2]; organic solvent or mixture, MeTHF",> 60 mg/mL
same,solubility,"[2]; organic solvent or mixture, Toluene",> 60 mg/mL
same,solubility,"[2]; organic solvent or mixture, n-Heptane",< 2.1 mg/mL
same,solubility,"[2]; water, H2O",< 1.9 mg/mL
same,solubility,[3],~6.6 mg/mL
C[C@@H]1Cc2c([nH]c3ccccc23)[C@@H](c2c(F)cc(NC3CN(CCCF)C3)cc2F)N1CC(F)(F)CO [Compound C Form 1],Hygroscopicity at 95% RH,[4]; 95% RH,< 1.5%
C[C@@H]1Cc2c([nH]c3ccccc23)[C@@H](c2c(F)cc(NC3CN(CCCF)C3)cc2F)N1CC(F)(F)CO [Compound B Form F],Solubility (equilibrium),[5]; 25° C.,0.26 mg/mL
same,Solubility (equilibrium),[5]; 35° C.,0.36 mg/mL
same,Solubility (equilibrium),[5]; 50° C.,0.82 mg/mL
same,Water uptake (DVS),"[4]; up to 80% RH, 25° C.",~1.9%
same,Hygroscopicity (in words),[4],slightly hygroscopic
C[C@@H]1Cc2c([nH]c3ccccc23)[C@@H](c2c(F)cc(NC3CN(CCCF)C3)cc2F)N1CC(F)(F)CO [Compound B Form B],solubility at 17 hrs,"[5]; 35 °C, organic solvent or mixture, thermodynamic from solid",0.3 mg/mL
same,solubility at 17 hrs,"[5]; 50 °C, organic solvent or mixture, thermodynamic from solid",0.49 mg/mL
same,solubility at 17 h,"[5]; ethanol, 25 °C, organic solvent or mixture, thermodynamic from solid",0.23 mg/mL
same,solubility at 24 hrs,"[6]; EtOH:H2O (92.7:7.3, v/v), aw 0.4, 25 °C, aw 0.4, EtOH:H2O (92.7:7.3, v/v)",27.5 mg/mL
same,solubility at 24 hrs,"[6]; EtOH:H2O (97:3, v/v), aw 0.2, 25 °C, aw 0.2, EtOH:H2O (97:3, v/v)",24.4 mg/mL
same,Solubility at 37° C.,[3],about 5.9 mg/mL
same,Hygroscopicity (in words),[4],slightly hygroscopic
same,Solid form (XRPD) after accelerated stability,"[1]; 30° C./65% RH and 40° C./75% RH, up to 6 months, open",remains unchanged
same,Solid form (XRPD) after stress stability,"[1]; 40° C./75% RH, one month, open",remains unchanged
same,"Solid form upon compression (SSNMR, XRPD)",[7],remains unchanged
same,Water activity (aw) at which the form remained stable against hydrate Form D,[8],< 0.2
same,Water activity (aw) up to which the form was kinetically stable,[8]; slurry bridging experiments up to 36 days,≤ 0.4
C[C@@H]1Cc2c([nH]c3ccccc23)[C@@H](c2c(F)cc(NC3CN(CCCF)C3)cc2F)N1CC(F)(F)CO [Compound B Form D],Solubility (equilibrium),"[6]; aw 0.2, EtOH:H2O (97:3, v/v)",21.7 mg/mL
same,Solubility (equilibrium),"[6]; aw 0.4, EtOH:H2O (92.7:7.3, v/v)",18.6 mg/mL
same,"Water uptake (DVS, desorption)","[4]; 20% RH, 25° C.",2.25%
same,"Water uptake (DVS, desorption)","[4]; 80% RH, 25° C.",2.72%
"C[C@]12CC[C@@H]3c4ccc(O)cc4C[C@@H](CCCCCCCCC[S+]([O-])CCCC(F)(F)C(F)(F)F)[C@H]3[C@@H]1CC[C@@H]2O (stereo partly drawn) [Fulvestrant, reference compound]",Efficacy relative to Compound B,[9],less efficacious than Compound B
